Assay results reported in ChEMBL document CHEMBL4680147, “Discovery of 6'-chloro-N-methyl-5'-(phenylsulfonamido)-[3,3'-bipyridine]-5-carboxamide (CHMFL-PI4K-127) as a novel Plasmodium falciparum PI(4)K inhibitor with potent antimalarial activity against both blood and liver stages of Plasmodium” (Eur J Med Chem, 2020).

Experiments:
[1] = system: Plasmodium falciparum; assay: Antimalarial activity against mefloquine/chloroquine/pyrimethamine resistant Plasmodium falciparum Dd2 infected in human O+ erythrocytes incubated for 72 hrs by SYBR Green 1 dye based fluorescence assay; assay type: functional, organism-based; settings: Dd2, Erythrocyte
[2] = system: Plasmodium falciparum; assay: Antimalarial activity against sulphadoxine-resistant blood stage Plasmodium falciparum 3D7 infected in human O+ erythrocytes incubated for 72 hrs by SYBR Green 1 dye based fluorescence assay; assay type: functional, organism-based; settings: 3D7, Erythrocyte
[3] = target: Phosphatidylinositol 4,5-bisphosphate 3-kinase catalytic subunit beta isoform (Homo sapiens, UniProt P42338); assay: Inhibition of human PI3Kbeta by ADP-Glo kinase assay
Sequence of Phosphatidylinositol 4,5-bisphosphate 3-kinase catalytic subunit beta isoform (P42338 whole entry, canonical isoform): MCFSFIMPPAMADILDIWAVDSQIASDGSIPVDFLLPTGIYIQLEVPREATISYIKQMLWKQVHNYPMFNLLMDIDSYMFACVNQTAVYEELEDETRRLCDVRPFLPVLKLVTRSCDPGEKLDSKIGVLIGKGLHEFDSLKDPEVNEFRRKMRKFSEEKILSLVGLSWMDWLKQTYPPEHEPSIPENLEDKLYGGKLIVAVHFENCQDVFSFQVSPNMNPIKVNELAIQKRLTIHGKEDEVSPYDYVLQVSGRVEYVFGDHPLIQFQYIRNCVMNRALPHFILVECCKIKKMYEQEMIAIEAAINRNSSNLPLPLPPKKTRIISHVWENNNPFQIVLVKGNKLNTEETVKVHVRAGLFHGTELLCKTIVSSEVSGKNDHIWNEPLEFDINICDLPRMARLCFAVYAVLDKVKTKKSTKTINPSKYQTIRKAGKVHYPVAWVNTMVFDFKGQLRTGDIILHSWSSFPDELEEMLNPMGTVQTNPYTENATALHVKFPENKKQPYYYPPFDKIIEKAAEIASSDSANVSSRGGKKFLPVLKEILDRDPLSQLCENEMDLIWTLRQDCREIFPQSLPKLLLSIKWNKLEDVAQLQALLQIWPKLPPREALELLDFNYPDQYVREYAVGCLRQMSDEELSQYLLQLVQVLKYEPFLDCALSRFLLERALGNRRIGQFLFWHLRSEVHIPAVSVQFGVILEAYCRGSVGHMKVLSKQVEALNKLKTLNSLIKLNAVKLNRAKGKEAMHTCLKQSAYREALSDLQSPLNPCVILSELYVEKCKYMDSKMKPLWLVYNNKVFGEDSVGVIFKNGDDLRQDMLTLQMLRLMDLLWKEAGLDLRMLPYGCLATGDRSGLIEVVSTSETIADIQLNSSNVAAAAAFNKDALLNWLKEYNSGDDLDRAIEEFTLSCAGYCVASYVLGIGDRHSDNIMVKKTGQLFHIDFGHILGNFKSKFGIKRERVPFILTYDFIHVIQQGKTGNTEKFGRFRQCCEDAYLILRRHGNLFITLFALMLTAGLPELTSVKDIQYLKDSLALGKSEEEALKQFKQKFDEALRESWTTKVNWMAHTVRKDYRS

[4] = target: T1, Phosphatidylinositol 4,5-bisphosphate 3-kinase catalytic subunit delta isoform (Homo sapiens, UniProt O00329); assay: Inhibition of human PI3Kdelta by ADP-Glo kinase assay
T1 sequence (O00329 whole entry): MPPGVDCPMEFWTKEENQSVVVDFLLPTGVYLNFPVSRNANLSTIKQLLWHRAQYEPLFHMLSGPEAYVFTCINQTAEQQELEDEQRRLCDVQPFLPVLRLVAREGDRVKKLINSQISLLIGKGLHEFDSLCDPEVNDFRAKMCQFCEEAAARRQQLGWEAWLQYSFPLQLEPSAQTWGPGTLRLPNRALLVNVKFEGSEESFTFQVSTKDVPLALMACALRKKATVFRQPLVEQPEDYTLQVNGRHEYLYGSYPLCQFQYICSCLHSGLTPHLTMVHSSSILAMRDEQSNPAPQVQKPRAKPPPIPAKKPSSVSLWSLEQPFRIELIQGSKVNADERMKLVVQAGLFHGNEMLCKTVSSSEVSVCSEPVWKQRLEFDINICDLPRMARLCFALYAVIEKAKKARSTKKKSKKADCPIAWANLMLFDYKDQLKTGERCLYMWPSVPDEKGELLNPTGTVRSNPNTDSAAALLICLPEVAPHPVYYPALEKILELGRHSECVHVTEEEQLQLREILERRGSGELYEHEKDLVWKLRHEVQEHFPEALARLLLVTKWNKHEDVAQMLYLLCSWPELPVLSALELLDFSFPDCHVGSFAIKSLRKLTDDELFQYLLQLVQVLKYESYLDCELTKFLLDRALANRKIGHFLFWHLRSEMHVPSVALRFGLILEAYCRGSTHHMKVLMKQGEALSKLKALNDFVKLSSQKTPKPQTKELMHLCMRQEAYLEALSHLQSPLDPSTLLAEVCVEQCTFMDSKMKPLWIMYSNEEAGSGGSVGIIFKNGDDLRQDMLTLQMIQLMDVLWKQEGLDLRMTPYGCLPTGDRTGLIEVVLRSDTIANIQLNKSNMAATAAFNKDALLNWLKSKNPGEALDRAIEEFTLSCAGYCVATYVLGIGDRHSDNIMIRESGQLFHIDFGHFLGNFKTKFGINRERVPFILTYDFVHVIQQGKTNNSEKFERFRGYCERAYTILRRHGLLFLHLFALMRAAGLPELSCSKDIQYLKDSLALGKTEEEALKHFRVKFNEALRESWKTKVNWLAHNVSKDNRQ

[5] = target: Phosphatidylinositol 4-kinase alpha (Homo sapiens, UniProt P42356); assay: Inhibition of human PI4K3alpha by ADP-Glo kinase assay
Sequence of Phosphatidylinositol 4-kinase alpha (P42356 whole entry): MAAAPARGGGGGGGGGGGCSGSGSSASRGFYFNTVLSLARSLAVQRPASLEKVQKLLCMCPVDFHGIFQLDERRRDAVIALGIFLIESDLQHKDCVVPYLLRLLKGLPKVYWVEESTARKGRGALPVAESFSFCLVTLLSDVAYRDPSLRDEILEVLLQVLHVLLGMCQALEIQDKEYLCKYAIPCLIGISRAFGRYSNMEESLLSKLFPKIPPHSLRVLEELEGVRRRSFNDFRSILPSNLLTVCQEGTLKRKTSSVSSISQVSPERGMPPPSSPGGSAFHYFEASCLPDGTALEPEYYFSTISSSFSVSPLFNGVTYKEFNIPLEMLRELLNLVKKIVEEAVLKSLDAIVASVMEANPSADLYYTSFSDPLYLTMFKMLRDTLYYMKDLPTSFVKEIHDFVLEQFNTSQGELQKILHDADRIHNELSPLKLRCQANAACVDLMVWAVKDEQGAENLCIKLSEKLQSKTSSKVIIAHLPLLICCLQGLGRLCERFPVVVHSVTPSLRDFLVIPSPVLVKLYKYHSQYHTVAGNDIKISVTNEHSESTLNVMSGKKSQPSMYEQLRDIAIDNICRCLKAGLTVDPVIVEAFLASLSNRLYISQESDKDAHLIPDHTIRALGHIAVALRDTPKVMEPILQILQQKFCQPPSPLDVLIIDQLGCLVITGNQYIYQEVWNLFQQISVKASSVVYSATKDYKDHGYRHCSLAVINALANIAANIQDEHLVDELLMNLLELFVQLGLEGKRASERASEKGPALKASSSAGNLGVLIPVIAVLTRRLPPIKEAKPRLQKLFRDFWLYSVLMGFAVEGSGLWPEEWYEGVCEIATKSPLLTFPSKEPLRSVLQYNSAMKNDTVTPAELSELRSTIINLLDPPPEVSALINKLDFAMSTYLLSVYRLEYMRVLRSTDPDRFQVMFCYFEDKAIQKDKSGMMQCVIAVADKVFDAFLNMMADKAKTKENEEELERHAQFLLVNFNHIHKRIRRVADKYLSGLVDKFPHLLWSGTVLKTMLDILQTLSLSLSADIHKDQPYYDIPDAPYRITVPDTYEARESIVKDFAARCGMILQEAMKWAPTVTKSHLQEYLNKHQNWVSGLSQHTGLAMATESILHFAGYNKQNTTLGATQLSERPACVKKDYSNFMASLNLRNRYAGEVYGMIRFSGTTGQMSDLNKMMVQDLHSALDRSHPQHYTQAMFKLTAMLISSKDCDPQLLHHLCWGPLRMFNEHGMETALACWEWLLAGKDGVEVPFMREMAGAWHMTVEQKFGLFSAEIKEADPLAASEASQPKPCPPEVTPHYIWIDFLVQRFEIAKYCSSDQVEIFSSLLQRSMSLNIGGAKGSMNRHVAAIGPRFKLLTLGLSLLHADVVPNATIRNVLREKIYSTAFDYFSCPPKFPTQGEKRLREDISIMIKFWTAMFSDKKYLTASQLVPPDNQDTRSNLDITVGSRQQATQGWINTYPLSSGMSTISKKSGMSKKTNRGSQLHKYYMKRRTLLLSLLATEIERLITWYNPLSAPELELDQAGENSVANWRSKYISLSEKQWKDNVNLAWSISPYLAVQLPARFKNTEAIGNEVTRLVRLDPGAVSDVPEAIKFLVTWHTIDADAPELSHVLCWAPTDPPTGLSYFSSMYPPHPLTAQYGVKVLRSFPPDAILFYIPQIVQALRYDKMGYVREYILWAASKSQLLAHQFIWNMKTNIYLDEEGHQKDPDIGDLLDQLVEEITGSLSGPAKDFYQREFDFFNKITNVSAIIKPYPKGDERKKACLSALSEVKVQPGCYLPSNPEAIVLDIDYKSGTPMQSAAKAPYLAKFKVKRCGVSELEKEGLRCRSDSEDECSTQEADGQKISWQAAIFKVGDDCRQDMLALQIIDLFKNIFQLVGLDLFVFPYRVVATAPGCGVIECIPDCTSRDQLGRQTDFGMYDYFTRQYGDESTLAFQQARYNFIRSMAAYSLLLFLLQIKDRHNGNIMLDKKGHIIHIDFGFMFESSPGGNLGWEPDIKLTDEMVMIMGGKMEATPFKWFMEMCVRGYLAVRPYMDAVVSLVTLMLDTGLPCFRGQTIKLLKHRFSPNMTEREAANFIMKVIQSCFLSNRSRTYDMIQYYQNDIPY

[6] = target: Phosphatidylinositol 4-kinase beta (Homo sapiens, UniProt Q9UBF8); assay: Inhibition of human PI4K3beta by ADP-Glo kinase assay
Sequence of Phosphatidylinositol 4-kinase beta (Q9UBF8 whole entry): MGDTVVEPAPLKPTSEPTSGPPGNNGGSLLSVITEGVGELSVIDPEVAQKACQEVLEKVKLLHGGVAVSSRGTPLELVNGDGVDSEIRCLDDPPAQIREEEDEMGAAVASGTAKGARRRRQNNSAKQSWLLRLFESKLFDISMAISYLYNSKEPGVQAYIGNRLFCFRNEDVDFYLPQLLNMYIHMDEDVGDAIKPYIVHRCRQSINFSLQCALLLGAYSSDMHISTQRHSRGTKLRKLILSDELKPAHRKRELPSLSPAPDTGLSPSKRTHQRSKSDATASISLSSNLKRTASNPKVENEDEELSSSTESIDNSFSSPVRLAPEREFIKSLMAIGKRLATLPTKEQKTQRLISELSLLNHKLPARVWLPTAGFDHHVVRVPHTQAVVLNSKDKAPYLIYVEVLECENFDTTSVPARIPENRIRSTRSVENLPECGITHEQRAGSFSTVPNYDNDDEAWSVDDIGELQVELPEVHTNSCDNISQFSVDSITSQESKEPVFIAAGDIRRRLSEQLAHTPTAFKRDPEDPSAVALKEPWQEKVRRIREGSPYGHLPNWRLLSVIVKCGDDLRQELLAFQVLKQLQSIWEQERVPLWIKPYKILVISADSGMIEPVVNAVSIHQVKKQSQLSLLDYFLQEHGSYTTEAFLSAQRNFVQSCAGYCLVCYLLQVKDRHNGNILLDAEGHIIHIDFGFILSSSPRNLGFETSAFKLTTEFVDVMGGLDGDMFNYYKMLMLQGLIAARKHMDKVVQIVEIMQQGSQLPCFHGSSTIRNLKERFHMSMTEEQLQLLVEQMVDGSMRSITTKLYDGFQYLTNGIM

[7] = Selectivity index, ratio of IC50 for human PI3Kalpha to IC50 for recombinant His-tagged Plasmodium falciparum 3D7 PI4K expressed in baculovirus infected Sf9 cells
[8] = Selectivity index, ratio of IC50 for human PI3Kdelta to IC50 for recombinant His-tagged Plasmodium falciparum 3D7 PI4K expressed in baculovirus infected Sf9 cells
[9] = Selectivity index, ratio of IC50 for human PI3Kgamma to IC50 for recombinant His-tagged Plasmodium falciparum 3D7 PI4K expressed in baculovirus infected Sf9 cells
[10] = Selectivity index, ratio of IC50 for human PI4K3alpha to IC50 for recombinant His-tagged Plasmodium falciparum 3D7 PI4K expressed in baculovirus infected Sf9 cells
[11] = Selectivity index, ratio of IC50 for human VPS34 to IC50 for recombinant His-tagged Plasmodium falciparum 3D7 PI4K expressed in baculovirus infected Sf9 cells
[12] = system: Plasmodium falciparum; assay: Antimalarial activity against artemisinin resistant Plasmodium falciparum 803 infected in human O+ erythrocytes incubated for 72 hrs by SYBR Green 1 dye based fluorescence assay; assay type: functional, organism-based; settings: Plasmodium falciparum, 803, Erythrocyte
[13] = system: Plasmodium falciparum; assay: Antimalarial activity against chloroquine resistant Plasmodium falciparum FAB9 infected in human O+ erythrocytes incubated for 72 hrs by SYBR Green 1 dye based fluorescence assay; assay type: functional, organism-based; settings: FAB9, Erythrocyte
[14] = system: Plasmodium falciparum; assay: Antimalarial activity against blood stage Plasmodium falciparum harboring PI4K Y1342I/T1360A mutant infected in human O+ erythrocytes incubated for 72 hrs by SYBR Green 1 dye based fluorescence assay; assay type: functional, organism-based; settings: Erythrocyte
[15] = AUC(0 to t) in Sprague-Dawley rat at 1 mg/kg, iv; assay type: ADME, organism-based; design: dose 1 mg/kg; settings: in vivo
[16] = AUC(0 to t) in Sprague-Dawley rat at 10 mg/kg, po; assay type: ADME, organism-based; design: dose 10 mg/kg; settings: in vivo
[17] = AUC(0 to t) in mouse at 1 mg/kg, iv; assay type: ADME, organism-based; design: dose 1 mg/kg; settings: in vivo
[18] = AUC(0 to t) in mouse at 10 mg/kg, po; assay type: ADME, organism-based; design: dose 10 mg/kg; settings: in vivo
[19] = AUC(0 to infinity) in Sprague-Dawley rat at 1 mg/kg, iv; assay type: ADME, organism-based; design: time infinity, route intravenous, dose 1 mg/kg; settings: in vivo
[20] = AUC(0 to infinity) in mouse at 1 mg/kg, iv; assay type: ADME, organism-based; design: time infinity, route intravenous, dose 1 mg/kg; settings: in vivo
[21] = Mean residence time (0 to t) in mouse at 1 mg/kg, iv; assay type: ADME, organism-based; settings: in vivo
[22] = Cmax in Sprague-Dawley rat at 10 mg/kg, po; assay type: ADME, organism-based; design: route oral, dose 10 mg/kg; settings: in vivo
[23] = Cmax in mouse at 1 mg/kg, iv; assay type: ADME, organism-based; design: route intravenous, dose 1 mg/kg; settings: in vivo
[24] = Cmax in mouse at 10 mg/kg, po; assay type: ADME, organism-based; design: route oral, dose 10 mg/kg; settings: in vivo
[25] = Apparent volume of distribution in Sprague-Dawley rat at 10 mg/kg, po; assay type: ADME, organism-based; settings: in vivo
[26] = Apparent volume of distribution in mouse at 10 mg/kg, po; assay type: ADME, organism-based; settings: in vivo
[27] = Apparent clearance in Sprague-Dawley rat at 1 mg/kg, iv; assay type: ADME, organism-based; settings: in vivo, read-out: CL(app) (converted)
[28] = Apparent clearance in Sprague-Dawley rat at 10 mg/kg, po; assay type: ADME, organism-based; settings: in vivo, read-out: CL(app) (converted)
[29] = Half life in Sprague-Dawley rat at 10 mg/kg, po; assay type: ADME, organism-based; settings: in vivo
[30] = Oral bioavailability in mouse at 10 mg/kg; assay type: ADME, organism-based; settings: in vivo
[31] = system: Plasmodium berghei; assay: Antimalarial activity against liver stage luciferase-expressing Plasmodium berghei sporozoites infected in BALB/c mouse assessed as suppression of parasitemia at 1 mg/kg, po treated for 2 hrs followed by parasite infection and measured upto 196 hrs post-infection by luciferase based in vivo real-time imaging analysis; assay type: functional; settings: time 198 hrs
[32] = Inhibition of human PIK3C2alpha by ADP-Glo kinase assay

## CNC(=O)c1cncc(-c2cnc(Cl)c(NS(=O)(=O)c3ccccc3)c2)c1
[1]
  EC50: 30.3 nM
[2]
  EC50: 25.1 nM
[3]
  IC50: 392 nM
[4]
  IC50: 104 nM
[5]
  IC50: 165 nM
[6]
  IC50: 433 nM
[7]
  Ratio IC50: 100
[8]
  Ratio IC50: 100
[9]
  Ratio IC50: 100
[10]
  Ratio IC50: 100
[11]
  Ratio IC50: 400
[12]
  EC50: 30.9 nM
[13]
  EC50: 23.6 nM
[14]
  EC50: 248 nM
[15]
  AUC(0-t): 2160 ng·h/mL
[16]
  AUC(0-t): 19300 ng·h/mL
[17]
  AUC(0-t): 327 ng·h/mL
[18]
  AUC(0-t): 2630 ng·h/mL
[19]
  AUC(0-inf): 2170 ng·h/mL
[20]
  AUC(0-inf): 292 ng·h/mL
[21]
  MRT last: 3.1 h
[22]
  Cmax: 4340 ng/mL
[23]
  Cmax: 718 ng/mL
[24]
  Cmax: 1540 ng/mL
[25]
  Vz: 2.2 L/kg
[26]
  Vz: 20.2 L/kg
[27]
  clearance: 8.33 mL/min/kg
[28]
  CL/F: 8.33 mL/min/kg
[29]
  half-life: 2.9 h
[30]
  bioavailability: 80%
[31]
  Activity: 100%
[32]
  IC50: > 10000 nM
